# Experiment: physchem
# Assay type: physicochemical
# Conditions: pH 8
# Text: One of ordinary skill will recognize that log P is a guideline tool for assessing amine candidates, since actual migration to the clear coat layer or retention within the aqueous 1K basecoat layer will be dependent upon the nature of the solvent base of the clear coat and other factors including the influence of other additives commonly present in the composition of both layers.
# In one aspect of the first embodiment, the secondary amine may be a dialkyl amine.
row,logP,SMILES
1,~2.8,CCCCNCCCC [di-n-butyl amine]
2,0.93,CCNC(C)C [ethyl isopropyl amine]

row,SMILES,logP
1,CCCNCCC [di-n-propyl amine],~1.6

# Experiment: physchem
# Conditions: not given
# Text: The availability of the base electron pair is influenced by the steric environment presented by the groups (R′, R″ and CH2OH) bonded to the N and any electronic influence of those same groups.
row,SMILES,pKa
1,"CC(C)(N)CO [AMP, 2-amino-2-methyl-1-propanol, reference compound]",9.8
2,"CN(C)CCO [DMEOA, N,N-dimethylethanolamine, reference compound]",9.2
3,CCCNCCC [di-n-propyl amine],10.9
4,CCCN(CO)CCC [methylol adduct of di-n-propyl amine],8.01
5,CCN(CC)CO [methylol adduct of diethylamine],8.9
6,CC(C)N(CO)C(C)C [methylol adduct of diisopropylamine],9.0
7,OCN1CCCCC1 [methylol adduct of piperidine],9.2
8,OCN1CCCC1 [methylol adduct of pyrrolidine],8.9
9,C1CCNC1 [pyrrolidine],10.6

# Reference: patent US11583890B2, “Low temperature curing 1K basecoat and method to coat a substrate with the 1K basecoat” (BASF Coatings GmbH, priority 2017, dated 2023)
